# Source: patent US7968552B2, “Oxadiazolidinedione compound” (Astellas Pharma Inc., priority 2006, dated 2011)
# Key:
# human GPR40 = target: T1, human GPR40 (Homo sapiens, UniProt O14842, R211H); experiment: Measurement of GPR40 agonist action (FLIPR, intracellular calcium); type: cell-based; settings: CHO cell strain expressing human GPR40; changes in fluorescence intensity after 1 minute of the measurement
# T1 construct: expressed in transfected cells
# From the text: Test Method 1: Measurement of GPR40 Agonist Action […]
# i) Cloning of Human GPR40
# Complete length sequence of GPR40 was obtained by carrying out a PCR method in accordance with the procedure shown below using a human genomic DNA (Clontech) as the template.
# An oligonucleotide consisting of the nucleotide sequence represented by SEQ ID NO:1 was used as the forward primer, and an oligonucleotide consisting of the nucleotide sequence represented by SEQ ID NO:2 as the reverse primer. In this connection, a nucleotide sequence comprising a XbaI recognition region is added to the respective 5′-termini of the aforementioned forward primer and reverse primer. PCR was carried out in the presence of 5% dimethyl sulfoxide (DMSO) using a Taq DNA polymerase (Ex Taq DNA polymerase; Takara Bio), by repeating 30 times of a cycle consisting of 94° C. (15 seconds)/55° C. (30 seconds)/72° C. (1 minute). As a result, a DNA fragment of about 0.9 kbp was amplified. This DNA fragment was digested with XbaI and then inserted into the XbaI site of a plasmid pEF-BOS-dhfr (Nucleic acids Research, 18, 5322, 1990), thereby obtaining a plasmid pEF-BOS-dhfr-GPR40.
# Nucleotide sequence of the GPR40 gene in the pEF-BOS-dhfr-GPR40 was determined by the dideoxy terminator method using a DNA sequencer (ABI 377 DNA Sequencer, Applied Biosystems). Nucleotide sequence of the GPR40 gene was as the nucleotide sequence represented by SEQ ID NO:3. The nucleotide sequence represented by SEQ ID NO:3 has an open reading frame (ORF) of 903 bases, and the amino acid sequence deduced from this ORF (300 amino acids) was as the amino acid sequence represented by SEQ ID NO:4. […]
# ii) Preparation of GPR40 Stable Expression Cell
# As the cell for expressing GPR protein, CHO dhfr cell (a dihydrofolate reductase (dhfr)-deficient CHO cell) was used. Also, as the plasmid for expressing GPR40 protein, the plasmid pEF-BOS-dhfr-GPR40 obtained in the aforementioned i) was used. The CHO dhfr cell was inoculated into αMEM medium containing 10% fetal calf serum (FCS) using a 6 well plate (Asahi Techno Glass) and cultured overnight to an 80 to 90% confluence, and then 2 μg per well of the plasmid pEF-BOS-dhfr-GPR40 was gene-transferred using a transfection reagent (Lipofectamine 2000; Invitrogen). After 24 hours of culturing from the gene transfer, the cells were diluted and inoculated again. […] After 20 days of culturing, the thus formed colonies of cells were individually recovered and cultured to obtain CHO cells stably expressing GPR40. From these, cells having high reactivity for intrinsic ligands oleic acid and linoleic acid were selected. […]
# iii) Measurement of GPR40 Agonist Action
# This test was measured by FLIPR (registered trademark, Molecular Device) using a change in intracellular calcium concentration as the index. The test method is shown in the following.
# A CHO cell strain in which human GPR40 was expressed was inoculated into a 384 well black plate (Becton Dickinson) in 6×10^3 cells per well portions and cultured overnight in a CO2 incubator.
# Using Calcium-3 assay kit (Molecular Device), one bottle of the phosphorescent pigment was dissolved in 10 ml of HBSS-HBEPES buffer (pH 7.4, 1×HBSS, 20 mM HEPES, Invitrogen). A 35.68 mg of probenecid (Sigma) was dissolved in 250 μl of 1M NaOH and adjusted by adding 250 μl of the HBSS-HEPES buffer. A phosphorescent pigment solution was prepared by mixing 16 ml of HBSS-HEPES buffer, 640 μl of the phosphorescent pigment and 32 μl of probenecid per one plate. The medium was discarded from the plate, and the phosphorescent pigment solution was dispensed in 40 μl per well portions and then incubated at room temperature for 2 hours. Each compound to be tested was dissolved in DMSO and then diluted with HBSS-HEPES buffer and dispensed in 10 μl portions into the plate, thereby starting the reaction, and changes in the intracellular calcium concentration were measured by FLIPR. […]
# MIN6 cell = experiment: Insulin secretion-promoting action using MIN6 cell; design: species or system mouse; settings: relative activity value at 1 μM of each compound, based on 100% control (DMSO), 2 hours incubation
# Method: Test Method 2: Insulin Secretion-Promoting Action Using MIN6 Cell
# This rest examined insulin acceleration action of compounds to be tested using a mouse pancreas β cell strain, MIN6 cell. The test method is shown in the following.
# The MIN6 cell was dispensed in 5×10^4 cells/well (200 μl) portions into a 96 well plate. DMEM (25 mM glucose) containing 10% FBS, 55 μM 2-mercaptoethanol, 100 U/ml penicillin and 100 μg/ml streptomycin was used as the medium. The medium was discarded 2 days thereafter using an aspirator, followed by washing once with 200 μl of KRB-HEPES (116 mM NaCl, 4.7 mM KCl, 1.2 mM KH2PO4, 1.2 mM MgSO4, 0.25 mM CaCl2, 25 mM NaHCO3, 0.005% FFA Free BSA, 24 mM HEPES (pH 7.4)) containing 2.8 mM glucose, which was warmed up to 37° C., and subsequent incubation again at 37° C. for 1 hour by adding 200 μl of the same buffer. After discarding the above-mentioned buffer using an aspirator and again washing with the buffer (200 μl), a predetermined concentration of a compound to be tested was added to the KRB-HEPES containing 2.8 mM or 22.4 mM glucose and added to respective wells in 100 μl portions and incubated at 37° C. for 2 hours. The above-mentioned samples were fractioned and diluted 100 times, and the insulin concentration was determined using an insulin RIA kit (Amersham RI). The activity value was shown by a relative activity value (%) at the time of 1 μM of each compound, based on 100% control (DMSO).
# [1] = tested on: blood glucose after glucose loading; experiment: Normal mice single oral glucose tolerance test; type: in vivo; settings: Mus musculus, 0.5 h, male ICR mice, 10 mg/kg orally 30 minutes before glucose loading (2 g/kg), 30 minutes after glucose loading, based on control group, read-out: Blood glucose lowering ratio
# Method: Test Method 3: Normal Mice Single Oral Glucose Tolerance Test
# This test examined on the blood glucose suppression action of compounds to be tested after glucose loading, using normal mice. The test method is shown below.
# Male ICR mice (6 weeks of age) after 1 week of preliminary rearing were subjected to overnight fasting and used as the animals to be tested. Each compound to be tested was made into a 0.5% methyl cellulose suspension and orally administered at a dose of 10 mg/kg 30 minutes before the glucose loading (2 g/kg). Administration of 0.5% methyl cellulose was used in the control group. Blood glucose lowering ratio (%) after 30 minutes of glucose loading was calculated based on the control group.
# T1 sequence (O14842 whole entry R211H): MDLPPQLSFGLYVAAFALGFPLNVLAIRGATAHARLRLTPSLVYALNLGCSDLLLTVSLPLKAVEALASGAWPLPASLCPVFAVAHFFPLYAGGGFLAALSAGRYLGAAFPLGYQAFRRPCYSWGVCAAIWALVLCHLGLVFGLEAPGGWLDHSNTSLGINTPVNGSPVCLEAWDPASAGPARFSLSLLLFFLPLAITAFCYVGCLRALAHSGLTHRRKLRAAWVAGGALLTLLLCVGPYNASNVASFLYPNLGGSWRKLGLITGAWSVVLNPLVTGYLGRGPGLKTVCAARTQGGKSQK
SMILES,EC50 (human GPR40) [µM],Insulin secretion-accelerating action (MIN6 cell) [%],inhibition in vivo at 10 mg/kg [1] [%]
"COc1cc(F)c(-c2cccc(COc3ccc(Cn4oc(=O)[n-]c4=O)cc3)c2)c(F)c1.[Na+] [Example 4, sodium 2-{4-[(2′,6′-difluoro-4′-methoxybiphenyl-3-yl)methoxy]benzyl}-3,5-dioxo-1,2,4-oxadiazolidin-4-ide]",0.35,177,
O=c1[nH]c(=O)n(Cc2ccc(OCc3cccc(-c4ccc(OCCO)cc4)c3)cc2)o1 [Example 8],0.031,,
"O=c1[nH]c(=O)n(Cc2ccc(OCc3cccc(Br)c3)cc2)o1 [Example 9, 2-{4-[(3-bromobenzyl)oxy]benzyl}-1,2,4-oxadiazolidine-3,5-dione]",0.8,,
"Cc1cc(OCCO)ccc1-c1cccc(COc2ccc(Cn3oc(=O)[nH]c3=O)cc2)c1 [Example 14, sodium 2-(4-{[4′-(2-hydroxyethoxy)-2′-methylbiphenyl-3-yl]methoxy}benzyl)-3,5-dioxo-1,2,4-oxadiazolidin-4-ide]",0.39,,34
"Cc1cccc(C)c1-c1cccc(C(=O)Nc2ccc(Cn3oc(=O)[nH]c3=O)cc2)c1 [Example 16, sodium 2-(4-{[(2′,6′-dimethylbiphenyl-3-yl)carbonyl]amino}benzyl)-3,5-dioxo-1,2,4-oxadiazolidin-4-ide]",0.45,,
O=c1[nH]c(=O)n(Cc2ccc(OCc3cccc(-c4cccnc4)c3)cc2)o1 [Example 33],0.64,,
N#Cc1ccc(-c2cccc(COc3ccc(Cn4oc(=O)[nH]c4=O)cc3)c2)cc1 [Example 34],,169,
O=c1[n-]c(=O)n(Cc2ccc(OCc3cccc(Oc4ccccc4)c3)cc2)o1.[Na+] [Example 38],0.65,228,
Cc1cccc(C)c1-c1cccc(COc2ccc(Cn3oc(=O)[n-]c3=O)cc2)c1.[Na+] [Example 39],0.26,192,26
CCOCCOc1cc(C)c(-c2cccc(COc3ccc(Cn4oc(=O)[n-]c4=O)cc3)c2)c(C)c1.[Na+] [Example 44],0.67,287,21
COc1cc(C)c(-c2cccc(COc3ccc(Cn4oc(=O)[nH]c4=O)cc3)c2)c(C)c1 [Example 47],0.42,,36
COc1cccc(OC)c1-c1cccc(COc2ccc(Cn3oc(=O)[nH]c3=O)cc2)c1 [Example 56],0.76,,31
O=c1[nH]c(=O)n(Cc2ccc(OCc3cccc(-c4c(Cl)cccc4Cl)c3)cc2)o1 [Example 60],0.46,,35
Cc1cccc(C)c1-c1cncc(COc2ccc(Cn3oc(=O)[nH]c3=O)cc2)c1 [Example 82],0.93,,
Cc1cccc(C)c1-c1cccc(COc2ccc(Cn3oc(=O)[nH]c3=O)cn2)c1 [Example 99],0.45,,
Cc1cc(C(=O)NC2CCOCC2)ccc1-c1cccc(COc2ccc(Cn3oc(=O)[nH]c3=O)cc2)c1 [Example 117],0.29,,21
Cc1cc(OS(C)(=O)=O)cc(C)c1-c1cccc(COc2ccc(Cn3oc(=O)[nH]c3=O)cc2)c1 [Example 119],0.22,,22
Cc1cc(OCCC(C)(C)O)cc(C)c1-c1cccc(COc2ccc(Cn3oc(=O)[nH]c3=O)cc2)c1C [Example 166],0.22,,35
Cc1cc(OCC[C@H](C)O)ccc1-c1cccc(COc2ccc(Cn3oc(=O)[nH]c3=O)cc2)c1C [Example 173],0.66,,21
CC(=O)NCCCOc1ccc(-c2cccc(COc3ccc(Cn4oc(=O)[nH]c4=O)cc3)c2C)c(C)c1 [Example 189],0.059,,30
Cc1cc(OCC[C@H](C)O)cc(C)c1-c1cccc(COc2ccc(Cn3oc(=O)[nH]c3=O)cc2)c1C [Example 193],0.52,,46
Cc1cccc(C)c1-c1cccc(CNc2ccc(Cn3oc(=O)[nH]c3=O)cc2)c1 [Example 406],0.12,,42
